# Laboratory results: article PMC11882969 (Nature Communications, 2025)
# Values joined by “and” are separate entries in the source; they are usually repeats but may differ in a detail not shown here. Identical values can stand only once.
# How the values were obtained:
# Format in all cases: cell-based
# [1] = target: panel of 320 non-olfactory GPCRs (Homo sapiens, UniProt Q14330)
# [2] = target: panel of 320 non-olfactory GPCRs (Homo sapiens, UniProt Q96LA9)
# [3] = target: panel of 320 non-olfactory GPCRs (Homo sapiens, UniProt P47211)
# [4] = target: panel of 320 non-olfactory GPCRs (Homo sapiens, UniProt Q86SM8)
# [5] = target: panel of 320 non-olfactory GPCRs (Homo sapiens, UniProt P21731)
# [6] = target: panel of 320 non-olfactory GPCRs (Homo sapiens, UniProt Q8IZF4)
# [7] = target: panel of 320 non-olfactory GPCRs (Homo sapiens, UniProt P51582)
# Sequence of panel of 320 non-olfactory GPCRs (Homo sapiens, UniProt P51582) (P51582 whole entry): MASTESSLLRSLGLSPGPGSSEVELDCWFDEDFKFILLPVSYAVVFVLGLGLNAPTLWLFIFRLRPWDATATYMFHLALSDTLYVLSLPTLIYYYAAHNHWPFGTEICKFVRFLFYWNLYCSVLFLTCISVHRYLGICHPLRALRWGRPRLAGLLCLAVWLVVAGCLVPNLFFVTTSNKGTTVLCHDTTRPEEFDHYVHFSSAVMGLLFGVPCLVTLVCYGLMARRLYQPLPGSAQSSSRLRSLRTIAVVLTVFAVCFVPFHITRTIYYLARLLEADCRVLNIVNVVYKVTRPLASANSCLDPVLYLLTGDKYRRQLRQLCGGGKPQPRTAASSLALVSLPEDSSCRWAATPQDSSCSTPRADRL
# [8] = target: panel of 320 non-olfactory GPCRs (Homo sapiens, UniProt Q96RJ0)
# Sequence of panel of 320 non-olfactory GPCRs (Homo sapiens, UniProt Q96RJ0) (Q96RJ0 whole entry): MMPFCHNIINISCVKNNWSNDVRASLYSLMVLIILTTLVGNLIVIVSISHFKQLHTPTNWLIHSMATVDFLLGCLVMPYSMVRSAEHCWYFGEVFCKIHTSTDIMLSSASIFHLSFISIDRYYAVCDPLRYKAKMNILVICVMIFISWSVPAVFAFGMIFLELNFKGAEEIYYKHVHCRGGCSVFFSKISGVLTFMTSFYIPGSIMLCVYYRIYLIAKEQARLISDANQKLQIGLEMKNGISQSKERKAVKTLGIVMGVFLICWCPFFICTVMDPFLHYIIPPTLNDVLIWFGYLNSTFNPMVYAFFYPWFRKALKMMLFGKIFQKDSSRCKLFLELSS
# [9] = target: panel of 320 non-olfactory GPCRs (Homo sapiens, UniProt Q15722)
# [10] = target: panel of 320 non-olfactory GPCRs (Homo sapiens, UniProt Q9HBX9)
# [11] = target: panel of 320 non-olfactory GPCRs (Homo sapiens, UniProt Q9NZH0)
# Sequence of panel of 320 non-olfactory GPCRs (Homo sapiens, UniProt Q9NZH0) (Q9NZH0 29-403): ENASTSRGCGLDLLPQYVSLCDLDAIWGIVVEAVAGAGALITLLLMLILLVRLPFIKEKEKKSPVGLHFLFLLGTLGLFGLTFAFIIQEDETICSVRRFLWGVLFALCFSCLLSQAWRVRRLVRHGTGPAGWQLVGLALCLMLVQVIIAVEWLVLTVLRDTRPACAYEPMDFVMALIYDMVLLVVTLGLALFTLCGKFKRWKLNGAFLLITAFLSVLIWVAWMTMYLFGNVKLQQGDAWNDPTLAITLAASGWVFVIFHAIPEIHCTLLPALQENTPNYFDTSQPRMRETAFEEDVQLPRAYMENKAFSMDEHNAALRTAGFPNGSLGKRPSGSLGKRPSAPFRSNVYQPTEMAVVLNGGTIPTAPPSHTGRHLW
# [12] = target: panel of 320 non-olfactory GPCRs (Homo sapiens, UniProt Q96PE1)
# [13] = target: panel of 320 non-olfactory GPCRs (Homo sapiens, UniProt P43115)
# [14] = target: panel of 320 non-olfactory GPCRs (Homo sapiens, UniProt P21462)
# [15] = target: panel of 320 non-olfactory GPCRs (Homo sapiens, UniProt P25021)
# Sequence of panel of 320 non-olfactory GPCRs (Homo sapiens, UniProt P25021) (P25021 whole entry): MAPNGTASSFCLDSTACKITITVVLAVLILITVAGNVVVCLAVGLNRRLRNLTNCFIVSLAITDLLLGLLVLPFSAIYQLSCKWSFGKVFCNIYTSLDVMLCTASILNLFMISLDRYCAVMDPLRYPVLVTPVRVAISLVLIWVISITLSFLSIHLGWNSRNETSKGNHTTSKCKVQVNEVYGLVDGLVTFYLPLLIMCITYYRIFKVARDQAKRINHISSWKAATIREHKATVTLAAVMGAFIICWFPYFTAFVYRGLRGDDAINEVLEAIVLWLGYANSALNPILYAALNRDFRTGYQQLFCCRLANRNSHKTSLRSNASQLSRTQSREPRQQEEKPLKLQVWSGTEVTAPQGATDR
# [16] = target: panel of 320 non-olfactory GPCRs (Homo sapiens, UniProt Q9BXC0)
# Sequence of panel of 320 non-olfactory GPCRs (Homo sapiens, UniProt Q9BXC0) (Q9BXC0 whole entry): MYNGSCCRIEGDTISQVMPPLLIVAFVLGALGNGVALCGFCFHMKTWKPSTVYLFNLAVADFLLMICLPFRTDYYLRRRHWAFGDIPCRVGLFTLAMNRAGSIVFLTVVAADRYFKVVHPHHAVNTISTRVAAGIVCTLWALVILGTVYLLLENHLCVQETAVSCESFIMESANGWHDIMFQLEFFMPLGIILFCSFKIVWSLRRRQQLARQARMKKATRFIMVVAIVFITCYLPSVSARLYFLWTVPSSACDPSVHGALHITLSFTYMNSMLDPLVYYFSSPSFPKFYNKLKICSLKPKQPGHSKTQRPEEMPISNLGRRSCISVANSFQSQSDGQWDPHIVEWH
# [17] = target: panel of 320 non-olfactory GPCRs (Homo sapiens, UniProt Q9Y2T5)
# Sequence of panel of 320 non-olfactory GPCRs (Homo sapiens, UniProt Q9Y2T5) (Q9Y2T5 whole entry): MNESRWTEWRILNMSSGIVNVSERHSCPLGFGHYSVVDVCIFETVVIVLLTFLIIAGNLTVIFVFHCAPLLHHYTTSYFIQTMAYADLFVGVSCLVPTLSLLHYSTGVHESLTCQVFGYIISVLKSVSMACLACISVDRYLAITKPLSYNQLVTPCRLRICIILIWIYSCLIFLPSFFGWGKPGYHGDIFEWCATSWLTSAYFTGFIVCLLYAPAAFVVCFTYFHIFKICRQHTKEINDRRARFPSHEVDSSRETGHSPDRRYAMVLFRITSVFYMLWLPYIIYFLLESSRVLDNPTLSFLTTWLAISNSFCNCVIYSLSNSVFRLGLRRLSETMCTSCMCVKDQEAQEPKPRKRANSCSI
# [18] = target: panel of 320 non-olfactory GPCRs (Homo sapiens, UniProt Q9Y271)
# [19] = target: panel of 320 non-olfactory GPCRs (Homo sapiens, UniProt Q96AM1)
# Sequence of panel of 320 non-olfactory GPCRs (Homo sapiens, UniProt Q96AM1) (Q96AM1 whole entry): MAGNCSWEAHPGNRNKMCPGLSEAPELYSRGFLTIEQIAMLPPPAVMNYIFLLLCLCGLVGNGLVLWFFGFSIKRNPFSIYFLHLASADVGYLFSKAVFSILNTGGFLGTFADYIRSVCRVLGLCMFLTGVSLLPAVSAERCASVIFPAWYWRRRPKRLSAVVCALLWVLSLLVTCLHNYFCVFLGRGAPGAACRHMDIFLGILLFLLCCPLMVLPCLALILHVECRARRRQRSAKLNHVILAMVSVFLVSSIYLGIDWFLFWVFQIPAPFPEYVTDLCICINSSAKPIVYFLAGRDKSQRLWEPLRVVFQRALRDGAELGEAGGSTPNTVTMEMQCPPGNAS
# [20] = target: panel of 320 non-olfactory GPCRs (Homo sapiens, UniProt Q8IWK6)
# [21] = target: panel of 320 non-olfactory GPCRs (Homo sapiens, UniProt P08588)
# [22] = target: panel of 320 non-olfactory GPCRs (Homo sapiens, UniProt Q8TDV0)
# Sequence of panel of 320 non-olfactory GPCRs (Homo sapiens, UniProt Q8TDV0) (Q8TDV0 whole entry): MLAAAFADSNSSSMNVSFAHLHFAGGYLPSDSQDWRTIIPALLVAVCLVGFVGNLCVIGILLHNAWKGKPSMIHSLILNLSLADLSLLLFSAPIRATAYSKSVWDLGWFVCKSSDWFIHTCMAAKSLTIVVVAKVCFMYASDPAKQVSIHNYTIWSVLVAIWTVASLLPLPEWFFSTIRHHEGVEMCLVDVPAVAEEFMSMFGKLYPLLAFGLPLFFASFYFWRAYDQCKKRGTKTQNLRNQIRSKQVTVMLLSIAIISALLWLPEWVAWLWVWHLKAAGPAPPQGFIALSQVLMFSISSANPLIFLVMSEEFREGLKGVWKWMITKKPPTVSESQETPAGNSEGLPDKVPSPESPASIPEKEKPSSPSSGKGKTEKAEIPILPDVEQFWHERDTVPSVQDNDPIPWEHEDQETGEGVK
# [23] = target: panel of 320 non-olfactory GPCRs (Homo sapiens, UniProt P07550)
# [24] = target: panel of 320 non-olfactory GPCRs (Homo sapiens, UniProt P29371)
# [25] = target: panel of 320 non-olfactory GPCRs (Homo sapiens, UniProt P50391)
# Sequence of panel of 320 non-olfactory GPCRs (Homo sapiens, UniProt P50391) (P50391 whole entry): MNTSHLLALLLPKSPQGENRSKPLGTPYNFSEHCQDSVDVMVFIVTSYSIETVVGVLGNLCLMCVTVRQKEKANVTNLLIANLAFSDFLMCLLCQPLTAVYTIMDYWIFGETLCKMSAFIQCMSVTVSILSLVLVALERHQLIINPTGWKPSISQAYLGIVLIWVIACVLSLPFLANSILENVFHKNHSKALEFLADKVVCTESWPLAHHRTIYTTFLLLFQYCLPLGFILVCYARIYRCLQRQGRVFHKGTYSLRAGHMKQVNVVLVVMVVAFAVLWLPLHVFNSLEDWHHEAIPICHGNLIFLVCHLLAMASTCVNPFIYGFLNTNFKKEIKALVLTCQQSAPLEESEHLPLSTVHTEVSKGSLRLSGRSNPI
# [26] = target: panel of 320 non-olfactory GPCRs (Homo sapiens, UniProt P51681)
# [27] = target: panel of 320 non-olfactory GPCRs (Homo sapiens, UniProt P60893)
# [28] = target: panel of 320 non-olfactory GPCRs (Homo sapiens, UniProt P49682)
# [29] = target: panel of 320 non-olfactory GPCRs (Homo sapiens, UniProt Q99705)
# [30] = target: panel of 320 non-olfactory GPCRs (Homo sapiens, UniProt P41587)
# [31] = target: panel of 320 non-olfactory GPCRs (Homo sapiens, UniProt O00398)
# Sequence of panel of 320 non-olfactory GPCRs (Homo sapiens, UniProt O00398) (O00398 whole entry): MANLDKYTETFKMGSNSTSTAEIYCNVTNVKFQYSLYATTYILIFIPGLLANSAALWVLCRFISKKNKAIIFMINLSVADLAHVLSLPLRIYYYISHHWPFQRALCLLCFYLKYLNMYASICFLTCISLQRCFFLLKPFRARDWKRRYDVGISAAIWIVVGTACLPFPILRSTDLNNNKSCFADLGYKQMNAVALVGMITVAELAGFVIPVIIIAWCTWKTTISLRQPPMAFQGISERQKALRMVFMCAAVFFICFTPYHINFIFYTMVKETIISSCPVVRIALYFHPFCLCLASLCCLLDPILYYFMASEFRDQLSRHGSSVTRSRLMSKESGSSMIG
# [32] = target: panel of 320 non-olfactory GPCRs (Homo sapiens, UniProt P32238)
# [33] = target: panel of 320 non-olfactory GPCRs (Homo sapiens, UniProt Q8TDS5)
# Sequence of panel of 320 non-olfactory GPCRs (Homo sapiens, UniProt Q8TDS5) (Q8TDS5 whole entry): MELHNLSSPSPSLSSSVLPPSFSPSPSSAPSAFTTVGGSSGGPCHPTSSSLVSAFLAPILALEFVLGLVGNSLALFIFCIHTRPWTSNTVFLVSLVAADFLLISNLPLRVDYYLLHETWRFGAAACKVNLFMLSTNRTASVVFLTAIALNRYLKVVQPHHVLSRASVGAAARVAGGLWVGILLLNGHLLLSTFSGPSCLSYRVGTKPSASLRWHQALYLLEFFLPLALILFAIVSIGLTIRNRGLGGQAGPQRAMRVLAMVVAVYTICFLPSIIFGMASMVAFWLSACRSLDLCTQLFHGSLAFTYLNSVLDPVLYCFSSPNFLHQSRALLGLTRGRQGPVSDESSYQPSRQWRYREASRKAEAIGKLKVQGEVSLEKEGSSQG
# [34] = target: panel of 320 non-olfactory GPCRs (Homo sapiens, UniProt O00421)
# Sequence of panel of 320 non-olfactory GPCRs (Homo sapiens, UniProt O00421) (O00421 whole entry): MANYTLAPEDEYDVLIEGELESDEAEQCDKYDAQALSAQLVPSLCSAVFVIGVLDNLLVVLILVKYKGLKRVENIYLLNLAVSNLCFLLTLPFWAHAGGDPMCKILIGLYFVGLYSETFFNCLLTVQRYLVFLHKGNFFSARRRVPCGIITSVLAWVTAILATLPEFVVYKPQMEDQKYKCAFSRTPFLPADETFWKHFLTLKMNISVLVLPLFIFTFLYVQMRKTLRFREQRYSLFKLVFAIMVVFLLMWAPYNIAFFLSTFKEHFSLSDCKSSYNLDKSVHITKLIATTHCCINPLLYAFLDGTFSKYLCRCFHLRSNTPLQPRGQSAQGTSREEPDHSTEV
# [35] = target: panel of 320 non-olfactory GPCRs (Homo sapiens, UniProt Q96CH1)
# [36] = target: panel of 320 non-olfactory GPCRs (Homo sapiens, UniProt P32247)
# [37] = target: panel of 320 non-olfactory GPCRs (Homo sapiens, UniProt P08913)
# Further: test concentration or dose not given here.
# Sequence of panel of 320 non-olfactory GPCRs (Homo sapiens, UniProt Q14330) (Q14330 whole entry): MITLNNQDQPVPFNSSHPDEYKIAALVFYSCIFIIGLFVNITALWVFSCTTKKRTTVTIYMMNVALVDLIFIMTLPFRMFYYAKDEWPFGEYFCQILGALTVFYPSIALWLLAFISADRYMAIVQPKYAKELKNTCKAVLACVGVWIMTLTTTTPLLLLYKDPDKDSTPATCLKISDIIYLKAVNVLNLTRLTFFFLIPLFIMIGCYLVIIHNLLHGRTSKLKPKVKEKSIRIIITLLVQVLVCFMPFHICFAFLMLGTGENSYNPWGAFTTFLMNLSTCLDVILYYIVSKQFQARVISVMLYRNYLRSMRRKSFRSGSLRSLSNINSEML
smiles,measurement,setting,value
Cc1cc(C(=O)NC(C)(c2ccco2)c2ccco2)nn1-c1cccc(C(F)(F)F)c1 [‘4936],Fold of Basal RLU,[1],1.1 fold and 1.3 fold and 1.6 fold and 1.7 fold
same,Fold of Basal RLU,[2],0.6 and 0.8 and 1.1
same,Fold of Basal RLU,[3],1.3 and 1 and 0.7 and 1.4
same,Fold of Basal RLU,[4],0.9 fold and 1.5 fold and 1.3 fold
same,Fold of Basal RLU,[5],0.7 and 1.2 and 0.8
same,Fold of Basal RLU,[6],0.9 and 1 and 0.8 and 0.6
same,Fold of Basal RLU,[7],1.4 fold and 1.8 fold and 1.7 fold
same,Fold of Basal RLU,[8],1 fold and 1.1 fold and 0.9 fold
same,Fold of Basal RLU,[9],0.6 and 1 and 0.9 and 0.8
same,Fold of Basal RLU,[10],0.9 and 1.1 and 1.7 and 1.3
same,Fold of Basal RLU,[11],0.7 and 0.6 and 0.8
same,Fold of Basal RLU,[12],0.6 fold and 0.5 fold and 0.9 fold and 1 fold
same,Fold of Basal RLU,[13],1.5 fold and 0.9 fold and 1 fold
same,Fold of Basal RLU,[14],1.8 and 2.2 and 1.2 and 1.7
same,Fold of Basal RLU,[15],1 and 1.2 and 1.1 and 0.6
same,Fold of Basal RLU,[16],0.4 and 0.7 and 0.6
same,Fold of Basal RLU,[17],1.8 fold and 1.9 fold and 2.1 fold
same,Fold of Basal RLU,[18],1.1 and 0.9
same,Fold of Basal RLU,[19],0.6 fold and 0.8 fold and 0.9 fold
same,Fold of Basal RLU,[20],0.7 fold and 1 fold
same,Fold of Basal RLU,[21],0.7 and 0.8 and 0.6
COC(=O)[C@@](C)(NC(=O)c1cc(C)n(-c2cccc(C(F)(F)F)c2)n1)c1cccs1 [‘1350],Fold of Basal RLU,[22],0.6 and 0.8 and 1.1
same,Fold of Basal RLU,[23],0.7
same,Fold of Basal RLU,[24],1.6 fold and 1.3 fold and 1.4 fold
same,Fold of Basal RLU,[25],1.3 and 1.4 and 1 and 0.7
same,Fold of Basal RLU,[26],0.9 and 0.6 and 1.1 and 0.7
same,Fold of Basal RLU,[27],1 fold and 1.9 fold and 1.2 fold
same,Fold of Basal RLU,[28],0.5 and 0.4 and 0.6
same,Fold of Basal RLU,[29],1.3 and 1.1 and 0.7
same,Fold of Basal RLU,[30],0.9 and 1 and 0.7 and 1.3
same,Fold of Basal RLU,[31],1.1 and 1 and 1.2
same,Fold of Basal RLU,[32],1.4 and 0.9 and 1.1 and 1.7
same,Fold of Basal RLU,[33],0.4 and 0.8 and 0.5
same,Fold of Basal RLU,[34],1.8 and 1.2 and 1 and 0.9
same,Fold of Basal RLU,[35],0.6 and 0.7 and 0.8
same,Fold of Basal RLU,[36],1.8 fold and 1.6 fold and 2.9 fold
same,Fold of Basal RLU,[37],1.8 fold and 1.4 fold and 1.6 fold and 1.2 fold
